# According to article PMC10764104, “Discovery of Molecular Glue Degraders via Isogenic Morphological Profiling” (ACS Chemical Biology, 2023):
# Tested on: RKO WT cells
# Details: 48 h, up to 13.5 μM tested
# Excerpt: Prior to screening the compound library in the isogenic CPA, we assessed their CRBN binding affinities using a fluorescence-polarization-based competition assay with recombinant DDB1-CRBN and the fluorescent tracer 16 (Figure S2). […] We also assessed the cytotoxicity of the CRBN binders in RKO wild-type (WT) cells to determine the appropriate treatment concentration.
# Assessment of gene expression and essentiality in RKO WT
# Public datasets on the transcriptome and essentiality of a protein‐encoding gene for RKO (cell line ID: ACH‐000943) were retrieved from DepMap Public 23Q2 (https://depmap.org/portal/, accessed on 14 August 2023). […]
# Fluorescence Polarization‐based competition assay
# Fluorescence Polarization assays were performed in 384‐well, Low Volume, Black, Round Bottom, Polystyrene Nonbinding surface Microplates (Corning, #4514). […] Fluorescence polarization values were determined with a PerkinElmer Envision reader with FITC FP dual mirror and FITC FP 480 excitation filter and FITC FP 535 emission filters. Fluorescence polarization values of a 10x serial dilution (10 nM to 100 µM) of the test compounds were determined in triplicates. EC50 values were calculated with GraphPad Prism software (version 10.0.2) with a non‐linear fit function (4PL sigmoidal curve fit) adjusting the bottom constrain to the FP value of free tracer. […]
structure (smiles),measurement,value
CN(Cc1ncc(C2CC2)o1)S(=O)(=O)Oc1ccc(Nc2ccc3c(c2)C(=O)N(C2CCC(=O)NC2=O)C3=O)cc1 (stereo not shown) [FL2-14],cytotoxicity (CellTiter-Glo),not cytotoxic
